Data on ten compounds can be found in patent US20080124753A1, “SpiceMatrix Technology for Taste Compound Identification” (priority 2006, published 2008).

“Also recorded” adds a separate entry of the source.

For assay [1], the target named is T1, TRPM8 (Homo sapiens, UniProt Q7Z2W7). Briefly: FMP membrane potential fluorescence assay, TRPM8 transfected HEK 293 cells. Type of assay: cell-based. The following applies: FIG. 1D, FLIPR. An excerpt: (§1) As described in greater detail below, HEK 293 cells, transiently transfected with plasmid bearing the genes encoding the various ion channels, were used to develop SpiceMatrix fingerprint assay. Indirect measurement of the changes in ion concentrations within the HEK 293 cells were made using a FMP dye and stimulation of the cells using calcium activating agents. Described below are the conditions for screening using TRPM5. Screening conditions for other TRP ion channels were similar to those described unless otherwise indicated.
(§2) 1.0×10^6 HEK 293 cells (ATCC) were plated in each well of a 6-well tissue culture dish overnight. The following day, cells were transfected with 4 μg of a pcDNA3.2 vector containing TRPM5 cDNA and 8 μl of Lipofectamine 2000 (Invitrogen), according to the manufacturer's protocol, and incubated overnight. […]
(§3) Once the expression of TRPM5 was confirmed in the HEK cells, 100 μl of the Blue or Red FMP dye (Molecular Devices) was added to each well of plates seeded with the transiently transfected cells. […] The plate was read in a FLEXStation microplate reader (Molecular Devices) with an excitation of 530 nm and an emission of 565 nm. The fluorescence was monitored for 3 minutes upon exposure of the cells to a calcium activating agent (carbachol, thrombin peptide or ATP). […]

Assay [2] concerns the target T1, TRPM8. The following applies: literature reports; cited from earlier work.
The target of assay [3] is T2, TRPV1 (Homo sapiens, UniProt Q8NER1). In words: FMP membrane potential fluorescence assay, TRPV1 transfected HEK 293 cells. Type of assay: cell-based.
Source text: as §1, §2, §3

Assay [4] has as its target T2, TRPV1. The following applies: literature report (Calixto et al.); cited from earlier work.
Assay [5] addresses T3, TRPA1 (Homo sapiens, UniProt O75762). As to conditions: literature reports; cited from earlier work.
The next assay deals with T4, mouse TRPA1 (Mus musculus, UniProt Q8BLA8).
T4 construct: host or cells: CHO
As to conditions: mouse TRPA1-CHO cells, literature report; cited from earlier work.

Assay [6] deals with T3, TRPA1. In words: FMP membrane potential fluorescence assay, TRPA1 transfected HEK 293 cells. Format: cell-based. As to conditions: for relative stimulation of TRPA1 (SpiceMatrix reactivity): FIG. 2A, relative to untransfected HEK-293 cells (Parentals), among 68 compounds.
Source text: as §1
1.0×10^6 HEK 293 cells (ATCC) were plated in each well of a 6-well tissue culture dish overnight. The following day, cells were transfected with 4 μg of a pcDNA3.2 vector containing TRPM5 cDNA and 8 μl of Lipofectamine 2000 (Invitrogen), according to the manufacturer's protocol, and incubated overnight. The following day, transfected cells were trypsinized and seeded into 96-well black, clear bottom, poly-D-lysine plates (Corning) at a density of 70,000 cells/well in a 100 μl volume and incubated in a 37° C./5% CO2 incubator overnight.
Once the expression of TRPM5 was confirmed in the HEK cells, 100 μl of the Blue or Red FMP dye (Molecular Devices) was added to each well of plates seeded with the transiently transfected cells. The plate was then incubated in a 37° C./5% CO2 incubator for 1 hour. The plate was read in a FLEXStation microplate reader (Molecular Devices) with an excitation of 530 nm and an emission of 565 nm. The fluorescence was monitored for 3 minutes upon exposure of the cells to a calcium activating agent (carbachol, thrombin peptide or ATP).
For screening of taste compounds, sample dilution sets (four 384 sample plates) were tested in 5, dye-loaded, cell lines to yield 20 assay plates for data collection. One cell plate, a sample plate, and an agonist sample source plate were placed in the FLIPR. To identify samples with agonist activity, 10 μl of samples or standards were added to the cell plate, and sample agonist response fluorescent readings taken for 3 minutes. To identify samples with antagonist activity, agonist, e.g. 100 μM cinnamaldehyde for TRPA1, was added to all wells and agonist response fluorescent readings were taken for 2 minutes. Sample that block this response were nominally antagonists.

Another assay deals with T5, TRPM5 (Homo sapiens, UniProt Q9NZQ8).
T5 construct: The full length TRPM5 was excised from the TOPO TA vector; expressed in transfected cells; host or cells: HEK 293 (ATCC)
T5 sequence (Q9NZQ8 1-1165): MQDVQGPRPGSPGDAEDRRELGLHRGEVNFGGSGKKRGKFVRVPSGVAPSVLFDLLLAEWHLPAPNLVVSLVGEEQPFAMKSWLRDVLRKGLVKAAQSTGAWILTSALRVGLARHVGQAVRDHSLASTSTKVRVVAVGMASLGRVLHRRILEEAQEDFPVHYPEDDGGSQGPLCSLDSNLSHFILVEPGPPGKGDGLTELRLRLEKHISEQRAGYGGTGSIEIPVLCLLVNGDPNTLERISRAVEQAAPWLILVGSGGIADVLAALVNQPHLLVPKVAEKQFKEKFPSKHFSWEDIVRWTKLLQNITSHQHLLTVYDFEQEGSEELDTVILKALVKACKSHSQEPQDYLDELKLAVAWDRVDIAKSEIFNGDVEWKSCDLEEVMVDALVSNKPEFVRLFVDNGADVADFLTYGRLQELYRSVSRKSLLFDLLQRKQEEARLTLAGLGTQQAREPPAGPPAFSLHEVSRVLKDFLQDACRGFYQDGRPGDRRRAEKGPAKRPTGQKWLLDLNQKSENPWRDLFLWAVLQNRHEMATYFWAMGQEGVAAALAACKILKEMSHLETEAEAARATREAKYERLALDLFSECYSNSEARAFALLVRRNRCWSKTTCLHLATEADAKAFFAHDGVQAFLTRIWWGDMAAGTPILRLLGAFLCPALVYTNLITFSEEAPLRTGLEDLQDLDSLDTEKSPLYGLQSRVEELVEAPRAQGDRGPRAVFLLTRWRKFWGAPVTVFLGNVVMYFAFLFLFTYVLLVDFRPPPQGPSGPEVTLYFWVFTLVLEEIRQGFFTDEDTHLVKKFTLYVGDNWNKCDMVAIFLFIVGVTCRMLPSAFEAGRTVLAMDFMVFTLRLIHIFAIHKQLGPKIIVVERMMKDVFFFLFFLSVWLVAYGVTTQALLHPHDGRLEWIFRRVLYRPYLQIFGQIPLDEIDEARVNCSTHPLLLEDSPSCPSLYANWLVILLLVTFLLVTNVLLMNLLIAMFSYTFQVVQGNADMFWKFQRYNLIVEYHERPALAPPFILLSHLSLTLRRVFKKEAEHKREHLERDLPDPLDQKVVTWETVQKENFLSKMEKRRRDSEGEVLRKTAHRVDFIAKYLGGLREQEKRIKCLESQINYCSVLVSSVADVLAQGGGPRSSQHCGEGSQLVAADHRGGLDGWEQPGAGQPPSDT
In words: FMP membrane potential fluorescence assay, TRPM5 transfected HEK 293 cells. Format: cell-based. An excerpt: As described in greater detail below, HEK 293 cells, transiently transfected with plasmid bearing the genes encoding the various ion channels, were used to develop SpiceMatrix fingerprint assay. Indirect measurement of the changes in ion concentrations within the HEK 293 cells were made using a FMP dye and stimulation of the cells using calcium activating agents. Described below are the conditions for screening using TRPM5. Screening conditions for other TRP ion channels were similar to those described unless otherwise indicated. […]
Once the expression of TRPM5 was confirmed in the HEK cells, 100 μl of the Blue or Red FMP dye (Molecular Devices) was added to each well of plates seeded with the transiently transfected cells. […] The plate was read in a FLEXStation microplate reader (Molecular Devices) with an excitation of 530 nm and an emission of 565 nm. The fluorescence was monitored for 3 minutes upon exposure of the cells to a calcium activating agent (carbachol, thrombin peptide or ATP).
For screening of taste compounds, sample dilution sets (four 384 sample plates) were tested in 5, dye-loaded, cell lines to yield 20 assay plates for data collection. […] To identify samples with agonist activity, 10 μl of samples or standards were added to the cell plate, and sample agonist response fluorescent readings taken for 3 minutes. […]

T4 sequence (Q8BLA8 whole entry): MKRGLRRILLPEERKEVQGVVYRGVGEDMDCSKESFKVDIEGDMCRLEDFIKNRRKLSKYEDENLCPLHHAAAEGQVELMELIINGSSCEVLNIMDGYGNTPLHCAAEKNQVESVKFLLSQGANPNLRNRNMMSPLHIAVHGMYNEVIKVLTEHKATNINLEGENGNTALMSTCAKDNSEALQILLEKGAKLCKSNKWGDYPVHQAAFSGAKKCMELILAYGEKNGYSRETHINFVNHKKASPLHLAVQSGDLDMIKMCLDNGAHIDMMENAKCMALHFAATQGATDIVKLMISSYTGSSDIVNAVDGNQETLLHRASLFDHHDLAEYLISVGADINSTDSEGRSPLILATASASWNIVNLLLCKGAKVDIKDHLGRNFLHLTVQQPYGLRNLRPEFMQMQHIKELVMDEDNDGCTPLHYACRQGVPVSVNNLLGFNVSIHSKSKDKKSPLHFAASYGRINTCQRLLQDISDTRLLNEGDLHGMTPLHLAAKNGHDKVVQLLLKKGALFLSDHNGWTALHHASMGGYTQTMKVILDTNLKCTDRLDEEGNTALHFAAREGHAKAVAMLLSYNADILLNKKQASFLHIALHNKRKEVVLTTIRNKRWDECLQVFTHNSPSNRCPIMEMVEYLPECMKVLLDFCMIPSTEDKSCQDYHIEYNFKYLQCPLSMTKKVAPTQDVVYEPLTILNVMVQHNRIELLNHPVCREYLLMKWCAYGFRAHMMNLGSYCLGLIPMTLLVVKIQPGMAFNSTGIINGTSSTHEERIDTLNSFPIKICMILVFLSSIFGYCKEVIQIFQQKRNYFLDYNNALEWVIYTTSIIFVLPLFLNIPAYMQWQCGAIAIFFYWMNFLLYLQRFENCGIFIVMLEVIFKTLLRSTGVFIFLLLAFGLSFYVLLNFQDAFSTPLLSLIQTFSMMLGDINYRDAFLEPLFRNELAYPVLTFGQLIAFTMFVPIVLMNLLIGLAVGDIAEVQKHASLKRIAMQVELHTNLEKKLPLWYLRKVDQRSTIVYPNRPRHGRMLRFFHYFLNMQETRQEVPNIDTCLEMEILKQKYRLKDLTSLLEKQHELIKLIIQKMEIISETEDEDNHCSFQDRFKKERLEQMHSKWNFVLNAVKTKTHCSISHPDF
T3 sequence (O75762 whole entry): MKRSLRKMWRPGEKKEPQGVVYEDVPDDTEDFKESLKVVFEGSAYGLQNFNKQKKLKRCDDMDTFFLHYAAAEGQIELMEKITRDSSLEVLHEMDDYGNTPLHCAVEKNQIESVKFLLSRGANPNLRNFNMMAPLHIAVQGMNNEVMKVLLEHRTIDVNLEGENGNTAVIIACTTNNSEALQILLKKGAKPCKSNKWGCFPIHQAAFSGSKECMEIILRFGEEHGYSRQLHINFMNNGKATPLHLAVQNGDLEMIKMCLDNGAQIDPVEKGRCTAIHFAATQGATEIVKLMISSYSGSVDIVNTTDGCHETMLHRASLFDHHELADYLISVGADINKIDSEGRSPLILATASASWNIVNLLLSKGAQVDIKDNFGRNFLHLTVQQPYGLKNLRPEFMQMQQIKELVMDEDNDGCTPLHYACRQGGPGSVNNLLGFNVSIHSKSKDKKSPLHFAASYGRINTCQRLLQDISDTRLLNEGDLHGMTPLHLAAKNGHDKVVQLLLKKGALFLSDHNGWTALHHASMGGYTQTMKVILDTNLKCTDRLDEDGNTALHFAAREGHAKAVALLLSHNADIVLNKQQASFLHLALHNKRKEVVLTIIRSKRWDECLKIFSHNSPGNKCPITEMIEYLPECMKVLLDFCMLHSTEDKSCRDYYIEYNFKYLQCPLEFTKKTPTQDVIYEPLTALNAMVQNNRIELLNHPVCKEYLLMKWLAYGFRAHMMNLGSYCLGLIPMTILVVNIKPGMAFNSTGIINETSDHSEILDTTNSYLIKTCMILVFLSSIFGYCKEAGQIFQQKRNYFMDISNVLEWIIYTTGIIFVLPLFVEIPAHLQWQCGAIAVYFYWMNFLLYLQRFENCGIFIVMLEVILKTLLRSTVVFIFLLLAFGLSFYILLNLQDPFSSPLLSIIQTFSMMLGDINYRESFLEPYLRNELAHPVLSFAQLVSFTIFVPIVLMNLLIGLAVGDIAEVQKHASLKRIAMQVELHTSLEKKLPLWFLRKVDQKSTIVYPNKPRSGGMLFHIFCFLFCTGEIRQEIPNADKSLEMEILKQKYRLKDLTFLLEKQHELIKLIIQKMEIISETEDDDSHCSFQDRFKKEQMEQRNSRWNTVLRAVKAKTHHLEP
T1 sequence (Q7Z2W7 whole entry): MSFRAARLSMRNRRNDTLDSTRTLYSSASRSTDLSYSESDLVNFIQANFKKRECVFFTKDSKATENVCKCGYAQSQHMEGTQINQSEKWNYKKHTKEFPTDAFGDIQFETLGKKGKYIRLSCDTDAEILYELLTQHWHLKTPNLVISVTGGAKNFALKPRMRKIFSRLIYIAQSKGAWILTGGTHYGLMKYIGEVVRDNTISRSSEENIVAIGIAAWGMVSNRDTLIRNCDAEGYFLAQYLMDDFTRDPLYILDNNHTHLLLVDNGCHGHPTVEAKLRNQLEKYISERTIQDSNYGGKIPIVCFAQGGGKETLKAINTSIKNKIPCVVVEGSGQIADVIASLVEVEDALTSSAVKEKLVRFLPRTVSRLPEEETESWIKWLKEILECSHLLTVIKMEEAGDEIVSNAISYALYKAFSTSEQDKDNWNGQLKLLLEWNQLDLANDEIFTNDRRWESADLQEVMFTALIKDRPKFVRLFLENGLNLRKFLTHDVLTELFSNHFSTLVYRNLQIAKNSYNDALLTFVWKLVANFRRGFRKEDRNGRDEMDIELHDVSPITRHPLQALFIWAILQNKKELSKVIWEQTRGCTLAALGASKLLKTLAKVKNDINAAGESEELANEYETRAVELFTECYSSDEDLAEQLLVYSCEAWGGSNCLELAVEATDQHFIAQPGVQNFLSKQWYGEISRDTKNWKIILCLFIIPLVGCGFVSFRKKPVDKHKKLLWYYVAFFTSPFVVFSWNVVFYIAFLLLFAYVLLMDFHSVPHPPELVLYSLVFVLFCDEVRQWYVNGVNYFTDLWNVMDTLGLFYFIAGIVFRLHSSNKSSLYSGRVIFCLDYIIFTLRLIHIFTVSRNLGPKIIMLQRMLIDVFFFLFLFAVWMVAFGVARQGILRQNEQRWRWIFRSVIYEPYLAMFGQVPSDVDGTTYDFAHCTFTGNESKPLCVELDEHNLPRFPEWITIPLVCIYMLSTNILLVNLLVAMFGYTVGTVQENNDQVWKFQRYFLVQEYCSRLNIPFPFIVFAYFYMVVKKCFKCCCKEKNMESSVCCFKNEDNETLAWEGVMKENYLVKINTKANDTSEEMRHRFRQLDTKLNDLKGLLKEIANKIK
T2 sequence (Q8NER1 whole entry): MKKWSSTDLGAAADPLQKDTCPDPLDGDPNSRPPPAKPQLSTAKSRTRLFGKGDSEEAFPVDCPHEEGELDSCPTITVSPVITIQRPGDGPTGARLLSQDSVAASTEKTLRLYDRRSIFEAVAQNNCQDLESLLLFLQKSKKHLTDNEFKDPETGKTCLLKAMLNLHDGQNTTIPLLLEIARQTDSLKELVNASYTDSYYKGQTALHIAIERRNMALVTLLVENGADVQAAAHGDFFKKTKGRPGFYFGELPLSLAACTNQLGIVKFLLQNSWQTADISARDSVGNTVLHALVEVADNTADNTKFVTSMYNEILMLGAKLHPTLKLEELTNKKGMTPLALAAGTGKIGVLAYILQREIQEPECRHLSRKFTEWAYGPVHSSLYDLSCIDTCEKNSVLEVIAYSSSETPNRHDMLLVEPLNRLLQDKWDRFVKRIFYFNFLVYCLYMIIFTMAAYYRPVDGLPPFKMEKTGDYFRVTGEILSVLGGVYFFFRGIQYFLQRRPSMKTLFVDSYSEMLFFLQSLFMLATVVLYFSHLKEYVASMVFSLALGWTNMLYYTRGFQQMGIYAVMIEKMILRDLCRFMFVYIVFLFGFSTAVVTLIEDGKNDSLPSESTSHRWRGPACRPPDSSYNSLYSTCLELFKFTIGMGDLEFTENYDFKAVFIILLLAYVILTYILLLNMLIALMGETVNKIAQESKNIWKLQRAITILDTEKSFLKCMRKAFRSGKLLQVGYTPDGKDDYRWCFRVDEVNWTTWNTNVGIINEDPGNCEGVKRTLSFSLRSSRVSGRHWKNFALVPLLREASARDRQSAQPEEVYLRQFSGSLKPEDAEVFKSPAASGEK

As for `CC1CCC(C(C)C)C(O)C1` (stereo not shown) [menthol], the “change in relative fluorescent intensity of a voltage-sensitive dye” value (“change in relative fluorescent intensity” for short) at TRPM8 [1] is listed as “strong spike in relative fluorescence; also recorded: activates TRPM8”. Further, on TRPM8 [2], the “activation of TRPM8” value is given as “activate the TRPM8”.

Turning to `COc1cc(CNC(=O)CCCC/C=C/C(C)C)ccc1O` [capsaicin], the “change in relative fluorescent intensity” value on TRPV1 [3] (FIG. 1C, TRPV1 transfected cells, FMP dye, FLIPR) was “strong spike in relative fluorescence; also recorded: activates TRPV1”.

For the compound `CCCCC[C@H](O)CC(=O)CCc1ccc(O)c(OC)c1` [gingerol], the “relative stimulation of TRPV1 (SpiceMatrix reactivity)” value on TRPV1 [3] (FIG. 2A, relative to untransfected HEK-293 cells (Parentals), among 68 compounds) is given as “highest degree of stimulation to TRPV1”. For the same compound, on TRPV1 [4], the “activation of TRPV1” value is on record as “activate”. Also, the “activation of TRPA1” value at TRPA1 [5] is listed as “activate”. Besides, the “activation of TRPM8” value on TRPM8 [2] was “activate”. The “increase in intracellular free Ca2+” value at mouse TRPA1 is given as “sharp increase”.

Consider `CC1CCC(C(C)C)C(O)C1` (single isomer, unassigned; (-)) [(−) menthol], for which the “relative stimulation of TRPA1 (SpiceMatrix reactivity)” value (shortened to “relative stimulation of TRPA1”) at TRPA1 [6] was “greatest stimulation of TRPA1”.

With `CCCCCc1cc(O)c2c(c1)OC(C)(C)[C@@H]1CCC(C)=C[C@@H]21` [A^9-tetrahydrocannabinol], the “activation of TRPA1” value at TRPA1 [5] was “activated”.

In the case of `C[N+](C)(C)CCOC(N)=O` [carbachol], the “change in relative fluorescent intensity” value on TRPM5 (FIG. 1B, TRPM5 transfected cells, FMP dye, FLIPR) is on record as “strong spike in relative fluorescence; also recorded: increases TRPM5”.

As for `C=CCc1ccc(O)c(OC)c1` [eugenol], at TRPV1 [4], the “activation of TRPV1” value is listed as “activate”. Moreover, on TRPA1 [5], the “activation of TRPA1” value was “activate”. Further, the “activation of TRPM8” value at TRPM8 [2] is on record as “activate”. The “increase in intracellular free Ca2+” value at mouse TRPA1 is given as “sharp increase”.

Turning to `O=CC=Cc1ccccc1` [cinnamaldehyde], at TRPA1 [6] (FIG. 1A, TRPA1 transfected cells, FMP dye, FLIPR), the “change in relative fluorescent intensity” value is listed as “strong spike in relative fluorescence; also recorded: activates TRPA1”. For the same compound, the “relative stimulation of TRPA1” value at TRPA1 [6] is “greatest stimulation of TRPA1”. In addition, on TRPA1 [5], the “activation of TRPA1” value was “activated; also recorded: specific activators of TRPA1”.

`C=CCN=C=S` [allyl isothiocyanate]: the “relative stimulation of TRPA1” value at TRPA1 [6] is reported as “highly reactive”. In addition, at TRPM5 (FIG. 2, relative to untransfected HEK-293 cells (Parentals)), the “relative stimulation of TRPM5 (SpiceMatrix reactivity)” value was “highly reactive”. Besides, the “activation of TRPA1” value at TRPA1 [5] was “specific activators of TRPA1”.

`COC(=O)c1ccccc1O` [methyl salicylate]: the “activation of TRPV1” value at TRPV1 [4] is reported as “activate”. Further, the “activation of TRPA1” value on TRPA1 [5] is listed as “activate”. Besides, at TRPM8 [2], the “activation of TRPM8” value is listed as “activate”. The “increase in intracellular free Ca2+” value on mouse TRPA1 is “sharp increase”.
